Experimental data: US4798897A, “Isoquinoline derivatives” (Asahi Kasei Kogyo Kabushiki Kaisha, priority 1987, dated 1989)

Experiments:
bronchial tubes = experiment: Inhibition of histamine contraction of bronchial tubes (relaxation of bronchial tubes); conditions: Cavia porcellus; guinea pig bronchial tube, 10 μM histamine; Table 16; read-out: ED50 (50% decrease of histamine contraction of bronchial tubes)
Procedure: 3. Inhibition of Histamine Contraction of Bronchial Tubes (Relaxation of Bronchial Tubes)
That is, a bronchial tube sample taken from a guinea pig was suspended in the 20-ml bath filled with Krebs-Henseleit nutrient solution and maintained at a temperature of 37° C. To the bath was added histamine so that the histamine concentration became 10 μM, causing the bronchial tube sample to contract. After the contraction became stable, the compounds of the present invention were added cumulatively to the bath to observe relaxation of the bronchial tube sample.
The effect of the compounds of the present invention on relaxation of bronchial tubes was examined according to the method as mentioned hereinbefore.

mesenteric artery = experiment: Relaxation of mesenteric artery (KCl-contracted); conditions: Oryctolagus cuniculus; rabbit mesenteric artery contracted with 15 to 20 mM KCl; read-out: ED50 (concentration attaining 50% of complete relaxation)
Procedure: 1. Relaxation of Mesenteric Artery
A rabbit of Japanese local variety weighing about 3 kg was bled to death. Then, the abdomen of the rabbit was dissected to locate a mesenteric artery. […] Thus, shrinking and relaxation of the artery could be measured as a load on the transducer. To the organ bath, KCl was added so that the KCl concentration became 15 to 20 mM, causing the artery to shrink. Then, the compounds of the present invention were added to the organ bath to observe relaxation of the artery.
The effect of the compounds of the present invention on relaxation of mesenteric artery was examined according to the method as mentioned hereinbefore.

`CCCCCCN(CC(N)CC)S(=O)(=O)c1cccc2cnccc12` (stereo not shown) [Compound (12), N-(2-aminobutyl)-N-hexyl-5-isoquinolinesulfonamide] was tested, and the EC50 (bronchial tubes) was 12 µM and the EC50 (mesenteric artery) was 4 µM.

Work on `CCCCCCNC1CCN(S(=O)(=O)c2cccc3cnccc23)CC1` [Compound (57), 1-(5-isoquinolinesulfonyl)-4-hexylaminopiperidine] yielded an EC50 (bronchial tubes) of 20 µM and an EC50 (mesenteric artery) of 15 µM.

In the case of `CNC1CCN(S(=O)(=O)c2cccc3c(Cl)nccc23)CC1` [Compound (94), 1-(1-chloro-5-isoquinolinesulfonyl)-4-methylaminopiperidine], the EC50 (bronchial tubes) is reported as 22 µM and the EC50 (mesenteric artery) is reported as 18 µM.

With `O=S(=O)(c1cccc2cnccc12)N1CCC(N2CCCCC2)CC1` [Compound (62), 1-(5-isoquinolinesulfonyl)-4-piperidinopiperidine] the EC50 (bronchial tubes) was 23 µM and the EC50 (mesenteric artery) was 22 µM.

In the case of `CNCCN(C)S(=O)(=O)c1cccc2cnccc12` [Compound (25), N-(2-methylaminoethyl)-N-methyl-5-isoquinolinesulfonamide], the EC50 (bronchial tubes) is reported as 10 µM and the EC50 (mesenteric artery) is reported as 10 µM.

`O=S(=O)(c1cccc2cnccc12)N1CCCC(N2CCCCC2)C1` (stereo not shown) [Compound (72), 1-(5-isoquinolinesulfonyl)-3-piperidinopiperidine] showed an EC50 (bronchial tubes) of 21 µM and an EC50 (mesenteric artery) of 24 µM.

With `O=S(=O)(c1cccc2cnccc12)N1CCCC(NCCc2ccccc2)C1` (stereo not shown) [Compound (70), 1-(5-isoquinolinesulfonyl)-3-phenethylaminopiperidine] the EC50 (bronchial tubes) was 13 µM and the EC50 (mesenteric artery) was 7 µM.

Molecule `CCCCCCN(CC(C)N1CCCCC1)S(=O)(=O)c1cccc2cnccc12` (stereo not shown) [Compound (48), N-hexyl-N-(2-piperidinopropyl)-5-isoquinolinesulfonamide] has an EC50 (bronchial tubes) of 20 µM and an EC50 (mesenteric artery) of 24 µM.

`CCCCCCNC1CCCN(S(=O)(=O)c2cccc3c(Cl)nccc23)C1` (stereo not shown) [Compound (98), 1-(1-chloro-5-isoquinolinesulfonyl)-3-hexylaminopiperidine] gave an EC50 (bronchial tubes) of 13 µM and an EC50 (mesenteric artery) of 13 µM.

With `NC1CCCN(S(=O)(=O)c2cccc3c(Cl)nccc23)C1` (stereo not shown) [Compound (96), 1-(1-chloro-5-isoquinolinesulfonyl)-3-aminopiperidine] the EC50 (bronchial tubes) was 12 µM and the EC50 (mesenteric artery) was 15 µM.

In the case of `CCCCCCN(CCCCCC)CCN(Cc1ccccc1)S(=O)(=O)c1cccc2cnccc12` [Compound (44), N-benzyl-N-(2-dihexylamimoethyl)-5-isoquinolinesulfonamide], the EC50 (bronchial tubes) is reported as 29 µM and the EC50 (mesenteric artery) is reported as 21 µM.

Molecule `CCCCCCNCCCN(CCCCCC)S(=O)(=O)c1cccc2cnccc12` [Compound (33), N-(3-hexylaminopropyl)-N-hexyl-5-isoquinolinesulfonamide] has an EC50 (bronchial tubes) of 19 µM and an EC50 (mesenteric artery) of 13 µM.

With `CCCCCCNC(C)CN(CCCCCC)S(=O)(=O)c1cccc2cnccc12` (stereo not shown) [Compound (37), N-(2-hexylaminopropyl)-N-hexyl-5-isoquinolinesulfonamide] the EC50 (bronchial tubes) was 27 µM and the EC50 (mesenteric artery) was 6 µM.

With `O=S(=O)(c1cccc2c(Cl)nccc12)N1CCC(NCc2ccccc2)CC1` [Compound (95), 1-(1-chloro-5-isoquinolinesulfonyl)-4-benzylaminopiperidine] the EC50 (bronchial tubes) was 18 µM and the EC50 (mesenteric artery) was 14 µM.

Work on `CNC1CCN(S(=O)(=O)c2cccc3cnccc23)CC1` [Compound (52), 1-(5-isoquinolinesulfonyl)-4-methylaminopiperidine] yielded an EC50 (bronchial tubes) of 12 µM and an EC50 (mesenteric artery) of 14 µM.

For `CCCCCCN(CC(C)N)S(=O)(=O)c1cccc2cnccc12` (stereo not shown) [Compound (11), N-(2-aminopropyl)-N-hexyl-5-isoquinolinesulfonamide], the EC50 (bronchial tubes) was 9 µM and the EC50 (mesenteric artery) was 3 µM.

Molecule `CCCN(C(CN)C(C)C)S(=O)(=O)c1cccc2cnccc12` (stereo not shown) [Compound (18), N-(1-aminomethyl-2-methylpropyl)-N-propyl-5-isoquinolinesulfonamide] has an EC50 (bronchial tubes) of 13 µM and an EC50 (mesenteric artery) of 13 µM.
